In test [1] the target is human orexin-2 receptor (Homo sapiens (Human), UniProt O43614). In words: hOX2R FLIPR Ca2+ flux assay. Format: cell-based. To be noted: CHO cells expressing the receptor; agonist 70 pM Ala-6,12 human orexin-A. How it is done:
In a typical experiment the OX1 and OX2 receptor antagonistic activity of the compounds of the present invention was determined in accordance with the following experimental method. For intracellular calcium measurements, Chinese hamster ovary (CHO) cells expressing the rat orexin-1 receptor or the human orexin-2 receptor, are grown in Iscove's modified DMEM containing 2 mM L-glutamine, […], 1% hypoxanthine-thymidine supplement, 100 U/ml penicillin, 100 μg/ml streptomycin and 10% heat-inactivated fetal calf serum (FCS). The cells are seeded at 20,000 cells/well into Becton-Dickinson black 384-well clear bottom sterile plates coated with poly-D-lysine. All reagents were from GIBCO-Invitrogen Corp. The seeded plates are incubated overnight at 37° C. and 5% CO2. Ala-6,12 human orexin-A as the agonist is prepared as a 1 mM stock solution in 1% bovine serum albumin (BSA) and diluted in assay buffer (HBSS containing 20 mM HEPES, 0.1% BSA and 2.5 mM probenecid, pH7.4) for use in the assay at a final concentration of 70 pM. Test compounds are prepared as 10 mM stock solution in DMSO, then diluted in 384-well plates, first in DMSO, then assay buffer. On the day of the assay, cells are washed 3 times with 100 μl assay buffer and then incubated for 60 min (37° C., 5% CO2) in 60 μl assay buffer containing 1 μM Fluo-4AM ester, 0.02% pluronic acid, and 1% BSA. The dye loading solution is then aspirated and cells are washed 3 times with 100 μl assay buffer. 30 μl of that same buffer is left in each well. Within the Fluorescent Imaging Plate Reader (FLIPR, Molecular Devices), test compounds are added to the plate in a volume of 25 μl, incubated for 5 min and finally 25 μl of agonist is added. Fluorescence is measured for each well at 1 second intervals for 5 minutes and the height of each fluorescence peak is compared to the height of the fluorescence peak induced by 70 pM Ala-6,12 orexin-A with buffer in place of antagonist. […] Alternatively, compound potency can be assessed by a radioligand binding assay (described in Bergman et. al. Bioorg. Med. Chem. Lett. 2008, 18, 1425-1430) in which the inhibition constant (Ki) is determined in membranes prepared from CHO cells expressing either the OX1 or OX2 receptor. The intrinsic orexin receptor antagonist activity of a compound which may be used in the present invention may be determined by these assays.

Test [2] concerns the target hOX1R (Homo sapiens, UniProt O43613). In words: hOX1R FLIPR Ca2+ flux assay. Format: cell-based. The note with it: CHO cells expressing the receptor; agonist 70 pM Ala-6,12 human orexin-A.

A value given as a limit tells only on which side of the number the result lay.

Sequence of human orexin-2 receptor (O43614 whole entry): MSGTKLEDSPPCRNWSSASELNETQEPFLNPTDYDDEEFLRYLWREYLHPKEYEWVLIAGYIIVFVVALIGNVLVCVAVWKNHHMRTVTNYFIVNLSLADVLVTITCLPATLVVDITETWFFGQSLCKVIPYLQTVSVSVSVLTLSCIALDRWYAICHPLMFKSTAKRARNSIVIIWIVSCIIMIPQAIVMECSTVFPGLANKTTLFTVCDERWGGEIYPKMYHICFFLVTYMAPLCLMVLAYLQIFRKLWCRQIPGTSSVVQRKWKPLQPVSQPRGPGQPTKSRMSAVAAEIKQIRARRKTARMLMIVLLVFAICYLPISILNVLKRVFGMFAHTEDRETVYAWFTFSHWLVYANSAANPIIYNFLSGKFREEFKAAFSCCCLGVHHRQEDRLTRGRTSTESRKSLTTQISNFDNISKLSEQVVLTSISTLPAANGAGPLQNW

As for `CC(C)(O)c1ccnc(N2CC[C@@H]3CCN(C(=O)c4ccccc4-n4nccn4)C[C@@H]32)c1` [Example C5, 2-{2-[(3aR, 7aR)-6-{[2-(2H-1,2,3-triazol-2-yl)phenyl]carbonyl}octahydro-1H-pyrrolo[2,3-c]pyridin-1-yl]pyridin-4-yl}propan-2-ol], the IC50 in test [1] stood at 0.125 µM; in test [2], 10 µM.
In the case of `CC(C)(O)c1cnc(N2CC[C@@H]3CCN(C(=O)c4ccccc4-n4nccn4)C[C@@H]32)nc1` [Example C6, 2-{2-[(3aR, 7aR)-6-{[2-(2H-1,2,3-triazol-2-yl)phenyl]carbonyl}octahydro-1H-pyrrolo[2,3-c]pyridin-1-yl]pyrimidin-5-yl}propan-2-ol], the results for the IC50 in test [1] and in test [2] were 1.83 µM and 10 µM, respectively.
On to `N#Cc1ccnc(N2CC[C@@H]3CCN(C(=O)c4cccnc4OCC(F)F)C[C@@H]32)c1` [Example D1, 2-((3aR,7aR)-6-(2-(2,2-difluoroethoxy)nicotinoyl)octahydro-1H-pyrrolo[2,3-c]pyridin-1-yl)isonicotinonitrile], for which the IC50 in test [1] came out at 0.147 µM; in test [2], 10 µM.
On the same counts, the results for `CCOc1ccccc1C(=O)N1CC[C@H]2CCN(c3cc(C#N)ccn3)[C@H]2C1` [Example E1, 2-((3aR,7aR)-6-(2-ethoxybenzol)octahydro-1H-pyrrolo[2,3-c]pyridin-1-yl)isonicotinonitrile] are 0.11 µM and 10 µM.
On the same counts, the results for `CCCc1ccccc1C(=O)N1CC[C@H]2CCN(c3cc(C#N)ccn3)[C@H]2C1` [Example E2, 2-((3aR, 7aR)-6-(2-propylbenzoyl)octahydro-1H-pyrrolo[2,3-c]pyridin-1-yl)isonicotinonitrile] are 0.0594 µM and 10 µM.
For the compound `N#Cc1ccnc(N2CC[C@@H]3CCN(C(=O)c4ccccc4CC(F)(F)F)C[C@@H]32)c1` [Example E3, 2-((3aR, 7aR)-6-(2-(2,2,2-trifluoroethyl)benzoyl)octahydro-1H-pyrrolo[2,3-c]pyridin-1-yl)isonicotinonitrile], the IC50 is 0.0481 µM in test [1] and 10 µM in test [2].
On the same counts, the results for `N#Cc1ccnc(N2CC[C@@H]3CCN(C(=O)c4ccc(F)cc4-n4nccn4)C[C@@H]32)c1` [Example E4, 2-((3aR, 7aR)-6-(4-fluoro-2(2H-1,2,3-triazol-2-yl)benzoyl)octahydro-1H-pyrrolo[2,3-c]pyridin-1-yl)isonicotinonitrile] are 0.0627 µM and not below 10 µM.
Taken in the same sequence, the figures for `N#Cc1ccnc(N2CC[C@@H]3CCN(C(=O)c4cccnc4-c4ccccc4)C[C@@H]32)c1` [Example E5, 2-((3aR, 7aR)-6-(2-phenylnicotinoyl)octahydro-1H-pyrrolo[2,3-c]pyridin-1-yl)isonicotinonitrile] were 0.0939 µM and 10 µM.
On the same counts, the results for `CCOc1ncccc1C(=O)N1CC[C@H]2CCN(c3cc(C#N)ccn3)[C@H]2C1` [Example E6, 2-{(3aR, 7aR)-6-[(2-ethoxypyridin-3-yl)carbonyl]octahydro-1H-pyrrolo[2,3-c]pyridin-1-yl}pyridine-4-carbonitrile] are 1.15 µM and 10 µM.
`N#Cc1ccnc(N2CC[C@@H]3CCN(C(=O)c4cccnc4OCC(F)(F)F)C[C@@H]32)c1` [Example E7, 2-[(3aR, 7aR)-6-{[2-(2,2,2-trifluoroethoxy)pyridin-3-yl]carbonyl}octahydro-1H-pyrrolo[2,3-c]pyridin-1-yl]pyridine-4-carbonitrile]: the IC50 worked out at 0.122 µM in test [1] and 10 µM in test [2].
Taken in the same sequence, the figures for `N#Cc1ccnc(N2CC[C@@H]3CCN(C(=O)c4ccccc4CC(F)F)C[C@@H]32)c1` [Example E8, 2-[(3aR, 7aR)-6-{[2-(2,2-difluoroethyl)phenyl]carbonyl}octahydro-1H-pyrrolo[2,3-c]pyridin-1-yl]pyridine-4-carbonitrile] were 0.512 µM and 10 µM.
Taken in the same sequence, the figures for `N#Cc1ccnc(N2CC[C@@H]3CCN(C(=O)c4ccccc4OCC(F)(F)F)C[C@@H]32)c1` [Example E9, 2-[(3aR, 7aR)-6-{[2-(2,2,2-trifluoroethoxy)phenyl]carbonyl}octahydro-1H-pyrrolo[2,3-c]pyridin-1-yl]pyridine-4-carbonitrile] were 0.319 µM and not below 10 µM.
Taken in the same sequence, the figures for `N#Cc1ccnc(N2CC[C@@H]3CCN(C(=O)c4ccccc4OCC(F)F)C[C@@H]32)c1` [Example E10, 2-[(3aR, 7aR)-6-{[2-(2,2-difluoroethoxy)phenyl]carbonyl}octahydro-1H-pyrrolo[2,3-c]pyridin-1-yl]pyridine-4-carbonitrile] were 0.139 µM and 10 µM.
`N#Cc1ccnc(N2CC[C@@H]3CCN(C(=O)c4cccnc4CC(F)(F)F)C[C@@H]32)c1` [Example E11, 2-[(3aR, 7aR)-6-{[2-(2,2,2-trifluoroethyl)pyridin-3-yl]carbonyl}octahydro-1H-pyrrolo[2,3-c]pyridin-1-yl]pyridine-4-carbonitrile]: the IC50 in test [1] stood at 2.11 µM; in test [2] it was 10 µM.
Taken in the same sequence, the figures for `N#Cc1ccnc(N2CC[C@@H]3CCN(C(=O)c4ccccc4C4CC4)C[C@@H]32)c1` [Example E12, 2-{(3aR, 7aR)-6-[(2-cyclopropylphenyl)carbonyl]octahydro-1H-pyrrolo[2,3-c]pyridin-1-yl}pyridine-4-carbonitrile] were 0.0816 µM and 10 µM.
On the same counts, the results for `COc1ccc(C(=O)N2CC[C@H]3CCN(c4cc(C#N)ccn4)[C@H]3C2)c(C2CC2)n1` [Example E13, 2-{(3aR, 7aR)-6-[(2-cyclopropyl-6-methoxypyridin-3-yl)carbonyl]octahydro-1H-pyrrolo[2,3-c]pyridin-1-yl}pyridine-4-carbonitrile] are 0.98 µM and 10 µM.
Regarding `N#Cc1ccnc(N2CC[C@@H]3CCN(C(=O)c4ccccc4-n4cccn4)C[C@@H]32)c1` [Example E14, 2-[(3aR, 7aR)-6-{[2-(1H-pyrazol-1-yl)phenyl]carbonyl}octahydro-1H-pyrrolo[2,3-c]pyridin-1-yl]pyridine-4-carbonitrile], the figures for the IC50 in test [1] and in test [2] were 0.256 µM and 10 µM, respectively.
For `N#Cc1ccnc(N2CC[C@@H]3CCN(C(=O)c4ccccc4C4CCC4)C[C@@H]32)c1` [Example E15, 2-{(3aR, 7aR)-6-[(2-cyclobutylphenyl)carbonyl]octahydro-1H-pyrrolo[2,3-c]pyridin-1-yl}pyridine-4-carbonitrile], the results for the IC50 in test [1] and in test [2] were 0.0311 µM and 9.72 µM, respectively.
Taken in the same sequence, the figures for `N#Cc1ccnc(N2CC[C@@H]3CCN(C(=O)c4ccccc4N4CCCC4)C[C@@H]32)c1` [Example E16, 2-{(3aR, 7aR)-6-[(2-pyrrolidin-1-ylphenyl)carbonyl]octahydro-1H-pyrrolo[2,3-c]pyridin-1-yl}pyridine-4-carbonitrile] were 0.0989 µM and 10 µM.
As to `N#Cc1ccnc(N2CC[C@@H]3CCN(C(=O)c4nccnc4N4CCCC4)C[C@@H]32)c1` [Example E17, 2-{(3aR, 7aR)-6-[(3-pyrrolidin-1-ylpyrazin-2-yl)carbonyl]octahydro-1H-pyrrolo[2,3-c]pyridin-1-yl}pyridine-4-carbonitrile], the IC50 in test [1] and in test [2] was 10 µM in each case.
As for `N#Cc1ccnc(N2CC[C@@H]3CCN(C(=O)c4ncccc4-c4ccccc4)C[C@@H]32)c1` [Example E18, 2-{(3aR, 7aR)-6-[(3-phenylpyridin-2-yl)carbonyl]octahydro-1H-pyrrolo[2,3-c]pyridin-1-yl}pyridine-4-carbonitrile], the IC50 was 0.0769 µM in test [1] and not below 10 µM in test [2].
On the same counts, the results for `CC(C)Oc1ncccc1C(=O)N1CC[C@H]2CCN(c3cc(C#N)ccn3)[C@H]2C1` [Example E19, 2-[(3aR, 7aR)-6-{[2-(1-methylethoxy)pyridin-3-yl]carbonyl}octahydro-1H-pyrrolo[2,3-c]pyridin-1-yl]pyridine-4-carbonitrile] are 1.4 µM and 10 µM.
On to `N#Cc1ccnc(N2CC[C@@H]3CCN(C(=O)c4ncccc4-n4nccn4)C[C@@H]32)c1` [Example E20, 2-[(3aR, 7aR)-6-{[3-(2H-1,2,3-triazol-2-yl)pyridin-2-yl]carbonyl}octahydro-1H-pyrrolo[2,3-c]pyridin-1-yl]pyridine-4-carbonitrile], for which the IC50 in test [1] is 1.5 µM; in test [2], not below 10 µM.

Source of the values: US9938276B2, “6,5-bicyclic octahydropyrrolopyridine orexin receptor antagonists” (Merck Sharp & Dohme Corp., priority 2014, dated 2018).
